Columns and labels:
[1] = test system: High Fat+High Cholesterol Diet and N-Diethylnitrosamine Induced Rat Model; assay: High fat+high cholesterol diet and N-diethylnitrosamine induced rat model, NAS scoring; type: in vivo, SD rats; settings: compound C administration groups (50 mg/kg and 100 mg/kg), intragastric once a day for 49 days; H&E staining; model group score 6
Experimental: Pregnant SD rats were purchased from Shanghai Jihui Laboratory Animal Care Co., Ltd, and neonatal rats obtained therefrom were used in this study. Forty male neonatal rats were chosen to receive a single injection of N-diethylnitrosamine (DEN, purchased from Sigma) at 2 weeks of age. After the neonatal rats were fed rat milk for 2 weeks, they were randomly divided into 4 groups (10 animals in each group) according to their body weights: a model group (0.5% CMC-Na), a compound C (50 mg/kg) administration group, a compound C (100 mg/kg) administration group, and an obeticholic acid (OCA, purchased from WuXi AppTec (Wuhan), 30 mg/kg) administration group. Each neonatal rat was fed a western diet (a high fat+high cholesterol feed, purchased from Trophic Animal Feed High-Tech Co., Ltd, China, Su Si certificate (2014) No. 06092) for 8 weeks. Meanwhile, another 8 male neonatal rats were selected as a normal group, which were fed rat milk for 4 weeks and then fed a normal diet instead of the high fat+high cholesterol diet. Starting from day 8 of high fat+high cholesterol diet feeding, the vehicle (0.5% CMC-Na), compound C and OCA were each administrated intragastrically once a day, for 49 consecutive days.
Animals were euthanized 2 h after the final administration, and their liver tissues were harvested. […]

[2] = test system: High Fat+High Cholesterol+Carbon Tetrachloride Induced Mouse Model; assay: High fat+high cholesterol+carbon tetrachloride induced mouse steatohepatitis model; type: in vivo, mice; settings: oral once a day, three 21-day courses, compound C 100 mg/kg, telmisartan 10 mg/kg; for Collagen accumulation in liver tissue: Picrosirius red staining, vs model group (compound C p<0.01; telmisartan p>0.05); for Serum cholesterol level / Serum low density lipoprotein level: vs model group (compound C p<0.01)
Description: Mice which were 8-10 weeks old (purchased from Jiangsu GemPharmatech Co., Ltd.) were fed a western diet (a high fat+high cholesterol feed, purchased from Beijing Hfk Bioscience Co., Ltd.) and injected intraperitoneally with carbon tetrachloride to induce a steatohepatitis model. Experimental animals were randomly divided into 3 groups (8 animals in each group) according to their body weights: a model group (administrated with a vehicle composed of PEG400, Tween-80 and deionized water), a compound C (100 mg/kg) administration group, and a telmisartan (10 mg/kg) administration group. Starting from day 5 (D5) of western diet feeding, each group underwent an intraperitoneal injection of 0.05 ml of 20% CCl4 once a week, for 12 weeks. Starting from day 21, the vehicle, compound C and telmisartan were each administered orally once a day, for three 21-day treatment courses at one-week intervals. Meanwhile, a normal control group was set wherein the mice were fed a normal diet combined with normal drinking water. Peripheral blood was taken from animals 2 h after the final administration, and serum was isolated. The animals were euthanized and their liver tissues were harvested. The serum was mainly used to measure the levels of cholesterol and low density lipoprotein. The liver tissues were stained with Picrosirius red to assess collagen accumulation.

[3] = test system: Carbon Tetrachloride Induced Mouse Model; assay: Carbon tetrachloride induced mouse model; type: in vivo, mice; settings: Picrosirius red staining
Experimental: Mice which were 8-10 weeks old (purchased from Jiangsu GemPharmatech Co., Ltd.) were randomly divided into 4 groups (8 animals in each group) according to their body weights: a model group (administrated with a vehicle, 0.5% CMC-Na), a compound C (300 mg/kg) administration group, a compound C (100 mg/kg) administration group, and a telmisartan (10 mg/kg) administration group. Each mouse was injected intraperitoneally with 0.05 ml of 40% CCl4 twice a week, for 6 consecutive weeks. Starting from day 15, each group underwent an intragastric administration of the corresponding substance once a day, for 28 consecutive days. Meanwhile, a normal control group was set wherein the mice in this group were fed a normal diet combined with normal drinking water. Animals were euthanized 2 h after the final administration, and their liver tissues were harvested and stained with Picrosirius red to assess collagen accumulation.

[4] = test system: High Fat+High Cholesterol+High Sugar+Carbon Tetrachloride Induced Mouse Model; assay: High fat+high cholesterol+high sugar+carbon tetrachloride induced mouse steatohepatitis model; type: in vivo, mice; settings: three 21-day courses; for Collagen accumulation in liver tissue: Picrosirius red staining; for Collagen accumulation in liver tissue / Serum cholesterol level / Serum low density lipoprotein level: oral once a day, compound C 100 mg/kg, telmisartan 10 mg/kg; for Serum cholesterol level / Serum low density lipoprotein level: vs model group (compound C p<0.05)
Experimental: Mice which were 8-10 weeks old (purchased from Jiangsu GemPharmatech Co., Ltd.) were fed a western diet (a high fat+high cholesterol feed, purchased from Beijing Hfk Bioscience Co., Ltd.) and a high-sugar solution (23.1 g/L D-fructose and 18.9 g/L D-glucose) and injected intraperitoneally with carbon tetrachloride to induce a steatohepatitis model. Starting from day 7 (D7) of western diet+high-sugar solution feeding, the mice were injected intraperitoneally with 0.05 ml of 20% carbon tetrachloride once a week, for 12 weeks. Animals were divided into groups (8 animals in each group) on day 28: a model group (administrated with a vehicle composed of PEG400, Tween-80 and deionized water), a compound C (100 mg/kg) administration group, and a telmisartan (10 mg/kg) administration group. Starting from day 28, the vehicle, compound C and telmisartan were each administered orally once a day, for three 21-day treatment courses at one-week intervals. Meanwhile, a normal control group was set wherein the mice were fed a normal diet combined with normal drinking water. Peripheral blood was taken from animals 2 h after the final administration, and serum was isolated. The animals were euthanized, and their liver tissues were harvested. The serum was mainly used to measure the levels of cholesterol and low density lipoprotein. The liver tissues were stained with Picrosirius red to assess collagen accumulation, and the ratio of endothelial cells to macrophages was measured by flow cytometry to reflect liver damage.

[5] = test system: High Fat+Streptozotocin Induced Mouse Model; assay: High fat+streptozotocin induced mouse steatohepatitis model; type: in vivo, mice; settings: for Inhibition Rate (%) on Ballooning Degeneration of Liver Cells: H&E staining score of liver vs model group; for Inhibition Rate (%) on Ballooning Degeneration of Liver Cells / Inhibition Rate (%) on Collagen Accumulation in Liver Tissue / Body Weight / Liver Weight / Liver Weight/Body Weight / Inhibition Rate (%) on Fatty Degeneration: oral once a day for 21 days, compound C 100 mg/kg, telmisartan 50 mg/kg; for Inhibition Rate (%) on Collagen Accumulation in Liver Tissue: Picrosirius red staining score of liver vs model group; for Body Weight / Liver Weight / Liver Weight/Body Weight: at the end of the test; for Body Weight: after fasting; for Inhibition Rate (%) on Fatty Degeneration: oil red O staining score of liver vs model group
Experimental: Pregnant mice were purchased from Shanghai Lingchang Laboratory Animal Co., Ltd. Thirty 2-day-old newborn male mice were chosen for the test. Each mouse was injected with 200 μg of streptozotocin (STZ, purchased from Sigma) and fed a high-fat diet for 2 weeks from 4-week-old to induce a steatohepatitis model. Meanwhile, another ten mice were selected as a normal group where they were fed a normal diet without injection of STZ. After 2 weeks of high-fat diet feeding, the mice were divided into 3 groups according to their body weights and fasting blood glucose levels: a model group, a compound C administration group, and a telmisartan (purchased from TOKYO CHEMICAL) administration group. Each group underwent once-a-day oral administration of the corresponding substance for 21 consecutive days. The body weights of mice were recorded each day (see FIG. 1A and FIG. 1B), and after the final administration, the body weights of mice after fasting were recorded (see Table 2 and FIG. 2A and FIG. 2B). The animals were euthanized, and their liver tissues were harvested. The liver tissues were weighed and subjected to histologic scoring (blind assessment) in respect of ballooning degeneration, fatty degeneration, and collagen accumulation, etc. Histologic changes were assessed by hematoxylin and eosin (H&E) staining, oil red O staining and Picrosirius red staining of the liver tissues, where the H&E staining was used for assessing the ballooning degeneration of liver cells, the oil red O staining was used for reflecting the fatty degeneration of liver and the Picrosirius red staining was used for assessing collagen accumulation. Relevant scores are shown in FIG. 3A, FIG. 3B and FIG. 3C, and inhibition rates of various histologic changes are shown in Table 3.
Scoring criteria: fatty degeneration is scored on a scale from 0 to 3, where lesion area <5% is scored as 0, lesion area of 5-33% is scored as 1, lesion area of 33-66% is scored as 2 and lesion area >66% is scored as 3. Ballooning degeneration of liver cells is scored on a scale from 0 to 2, where no ballooning degeneration is scored as 0, little ballooning degeneration is a scored as 1, and ballooning degeneration of most cells or significant ballooning degeneration is scored as 2. Collagen accumulation is scored on a scale from 0 to 4 with reference to the scoring criteria reported in Brunt E M, et al., Hepatology (2011).
The inhibition rates (%) on fatty degeneration, ballooning degeneration of liver cells and collagen accumulation in liver tissue shown in Table 3 were calculated according to the following formulae, respectively (the normal group was scored as 0): Inhibition rate (%) on fatty degeneration=100%×(the average score of the model group−the average score of the administration group)/(the average score of the model group−the average score of the normal group) Inhibition rate (%) on ballooning degeneration of liver cells=100%×(the average score of the model group−the average score of the administration group)/(the average score of the model group−the average score of the normal group) Inhibition rate (%) on collagen accumulation in liver tissue=100%×(the average score of the model group−the average score of the administration group)/(the average score of the model group−the average score of the normal group)

For `Cn1c(C(=O)N2CC(F)(F)C2)cc2ccc(-c3nccc(Nc4ccc(-c5cn[nH]c5)cc4)n3)cc21` [Compound C], the “NAS score of liver tissue” value [1] was “about 4.2”, the “Collagen accumulation in liver tissue” value [2] was “significantly reduced” and the Serum cholesterol level [2] was “significantly reduced”. The “Serum low density lipoprotein level” value [2] was “significantly reduced”, the “Collagen accumulation in liver tissue” value ([3]; 100 mg/kg intragastric once a day for 28 days, vs model group (p<0.001)) was “significantly reduced” and the “Collagen accumulation in liver tissue” value ([3]; 300 mg/kg intragastric once a day for 28 days, vs model group (p<0.001)) was “significantly reduced”. For the same molecule, the “Collagen accumulation in liver tissue” value ([4]; vs model group (p<0.01)) was “significantly reduced”, the “Proportion of endothelial cells in liver tissue” value ([4]; flow cytometry, vs model group (p<0.01), compound C 100 mg/kg oral once a day) was “increased” and the “Proportion of macrophages in liver tissue” value ([4]; flow cytometry, vs model group, compound C 100 mg/kg oral once a day) was “reduced at a certain extent”. The Serum cholesterol level [4] was “significantly reduced”, the “Serum low density lipoprotein level” value [4] was “significantly reduced” and the “Therapeutic effect (fatty degeneration, ballooning degeneration, collagen accumulation of liver tissue)” value ([5]; 100 mg/kg oral once a day for 21 days) was “significant therapeutic effects”. The “Inhibition Rate (%) on Ballooning Degeneration of Liver Cells” value [5] was 60.00%, the “Inhibition Rate (%) on Collagen Accumulation in Liver Tissue” value [5] was 44.44% and the “Body Weight” value [5] was 17.1 ± 0.59 g. The “Liver Weight” value [5] was 872.3 ± 17.91 mg, the “Liver Weight/Body Weight” value [5] was 5.1 ± 0.15% and the “Inhibition Rate (%) on Fatty Degeneration” value [5] was 66.67%.
For `CCCc1nc2c(C)cc(-c3nc4ccccc4n3C)cc2n1Cc1ccc(-c2ccccc2C(=O)O)cc1` [Telmisartan, telmisartan, reference compound], the “Collagen accumulation in liver tissue” value [2] was “not inhibited”, the Serum cholesterol level [2] was “no effect” and the “Serum low density lipoprotein level” value [2] was “no effect”. For the same molecule, the “Collagen accumulation in liver tissue” value ([3]; 10 mg/kg intragastric once a day for 28 days, vs model group (p>0.05)) was “not inhibited”, the “Collagen accumulation in liver tissue” value ([4]; vs model group (p<0.01)) was “significantly reduced” and the Serum cholesterol level [4] was “no effect”. The “Serum low density lipoprotein level” value [4] was “no effect”, the “Inhibition Rate (%) on Ballooning Degeneration of Liver Cells” value [5] was 11.12% and the “Inhibition Rate (%) on Collagen Accumulation in Liver Tissue” value [5] was 38.27%. For the same molecule, the “Body Weight” value [5] was 15.7 ± 0.84 g, the “Liver Weight” value [5] was 760.1 ± 48.78 mg and the “Liver Weight/Body Weight” value [5] was 4.9 ± 0.39%. For the same molecule, the “Inhibition Rate (%) on Fatty Degeneration” value [5] was −11.17%.

From patent US12485108B2, “Method for treating fatty liver disease and/or steatohepatitis” (BEIJING TIDE PHARMACEUTICAL CO., LTD., priority 2019, dated 2025)
